In US11992497B2 (priority 2021, dated 2024):

Assays:
rUGT1A9 = target: T1, rUGT1A9 (Homo sapiens, UniProt O60656); assay: Inhibition of CBG glucuronidation by Compound 1; assay type: biochemical; conditions: for CBG detected, Percent of control / CBG glucuronide formed, Percent of control: rUGT1A9; for CBG detected / CBG glucuronide formed: rUGT1A9, 4 min
T1 sequence (O60656 26-530): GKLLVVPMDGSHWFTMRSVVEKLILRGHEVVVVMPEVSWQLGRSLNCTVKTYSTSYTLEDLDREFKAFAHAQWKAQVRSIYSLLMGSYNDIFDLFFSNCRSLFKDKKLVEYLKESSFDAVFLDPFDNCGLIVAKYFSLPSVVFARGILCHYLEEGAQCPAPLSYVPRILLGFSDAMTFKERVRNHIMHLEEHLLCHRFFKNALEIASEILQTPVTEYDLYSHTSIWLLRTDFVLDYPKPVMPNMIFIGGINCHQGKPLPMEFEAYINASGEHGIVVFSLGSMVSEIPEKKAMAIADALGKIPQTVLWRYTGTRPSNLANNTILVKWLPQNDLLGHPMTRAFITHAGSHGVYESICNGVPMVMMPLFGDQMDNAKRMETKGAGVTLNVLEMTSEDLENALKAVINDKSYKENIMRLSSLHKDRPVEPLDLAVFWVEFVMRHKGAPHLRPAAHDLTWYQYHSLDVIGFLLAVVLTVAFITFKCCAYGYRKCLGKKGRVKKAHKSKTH
Procedure: The purpose of this experiment was to determine if Compound 1 can inhibit the glucuronidation of CBG, as both are substrates for the two major isoforms responsible for CBG glucuronidation.
The ability of Compound 1 to inhibit the metabolism of CBG by UGT1A9 and UGT2B7 enzymes was investigated to ascertain the ICso values for direct inhibition. The incubation conditions (substrate concentration, incubation time and protein concentration) were determined in Part 2 of the protocol such that CBG metabolism remains near initial rate conditions (e.g., 20-30% substrate loss).
Preliminary experiments were conducted in Part I of the protocol, first to establish the HPLC/MS/MS bioanalytical methods for CBG and CBG glucuronide. […] The second set of preliminary experiments (Part 2), as mentioned, were conducted to optimize the incubation conditions as described above. Incubations (at 37 C) contained Tris-HCl buffer (100 mM, pH 7.7), MgCl2 (10 mM), EDTA (1 mM, pH 7.4) and UDP-glucuronic acid (UDPGA, 10 mM). CBG was added to each incubation in DMSO such that the final percent of DMSO was 1% v/v, or less. Reactions were terminated by the addition of an equal volume of stop reagent, acetonitrile containing an internal standard. The samples were centrifuged (e.g., 920 RCF for 10 minutes at 10° C.), and the supernatant fractions were analyzed by LC-MS/MS to determine the amount of CBG remaining and formation of one metabolite (CBG glucuronide).
To examine its ability to act as a direct inhibitor of the above listed enzymes, Compound 1 was be added to recombinant human UGT enzyme together with CBG. Reactions were initiated with UDPGA and were carried out in duplicate. For all assays, reactions were terminated by the addition of acetonitrile with or without 2% v/v formic acid, including the internal standard.
Authentic metabolite reference standards were used for quantitation of the probe substrate metabolites and as internal standards. Based on the information obtained in the Part 2 experiments, the following table summarizes the experiments performed, assessing the inhibitory effects of Compound 1 was conducted as follows:
The amounts of CBG present at the end of the incubation periods was determined. For inhibition to have occurred, the amounts of CBG present at the end of the incubation period needed to increase, and the amounts of glucuronide formed needed to decrease.

[1] = Hepatocyte stability and metabolite profiling; assay type: in vitro ADME, rat; conditions: cryopreserved hepatocytes in suspension; Rat cryopreserved hepatocytes
Procedure: (§1) The objective of this study was to investigate the stability of the test compound, CBG, in human, rat, dog, mouse, monkey and minipig cryopreserved hepatocytes. Follow-on metabolite profiling was performed.
(§2) CBG was incubated up to 2 hr with cryopreserved hepatocytes. Cryopreserved hepatocytes in suspension were added to test compound in supplemented media following pre-incubation to initiate the reaction and the reactions were stopped by organic solvent at the appropriate time points. The termination plates were centrifuged and sample supernatants were analysed using Cyprotex generic LC MS/MS conditions to generate intrinsic clearance values for CBG. Two control compounds for each species were included in the assay and if the values for these compounds were not within the specified limits the results were rejected and the experiment repeated.
(§3) Following the hepatocyte stability assay the samples were 59tilized for metabolite profiling using suitable high-resolution LC-MS/MS conditions. The 40 and 60 minute human samples, 20 and 120 minute rat samples, 10 and 20 minute dog and monkey samples, 20 and 60 minute mouse samples, and 40 and 120 minute minipig samples were compared against the 0 minute control sample to establish which and how many metabolites were formed. […] No further analysis was carried out with the mouse species.
(§4) The areas and percentages reported for the parent and metabolites were calculated using the XIC data. Metabolite observed at greater than 1% of the total of drug related material are reported. […] For accuracy, a ppm error of less than 5 is desirable; when the response for a metabolite observed is low the ppm error maybe greater than 5. Where a metabolite has been referred to as a potential oxidation it can refer to a potential hydroxylation, epoxidation or oxide formation. Representative collision induced dissociation (CID) mass spectra were obtained for the metabolites found.

[2] = tested on: cryopreserved hepatocytes; assay: Hepatocyte stability and metabolite profiling; assay type: in vitro ADME, rat; conditions: rat hepatocyte samples
Procedure: as §1, §2, §3, §4

[3] = Hepatocyte stability and metabolite profiling; assay type: in vitro ADME, dog; conditions: cryopreserved hepatocytes in suspension; Dog cryopreserved hepatocytes
Procedure: as §1, §2, §3, §4

[4] = tested on: cryopreserved hepatocytes; assay: Hepatocyte stability and metabolite profiling; assay type: in vitro ADME, dog; conditions: dog hepatocyte samples
Procedure: as §1, §2, §3, §4

## CCCCCc1cc(O)c(C/C=C(\C)CCC=C(C)C)c(OC)c1 [Compound 1, (E)-2-(3,7-dimethylocta-2,6-dien-1-yl)-3-methoxy-5-pentylphenol]
rUGT1A9; 10 μM CBG + 0.01 μM Compound 1
  CBG detected, Percent of control: 109% of control
  CBG glucuronide formed, Percent of control: 94.4% of control
  CBG detected: 1250 pmol
  CBG glucuronide formed: 350000 area ratio
rUGT1A9; 10 μM CBG + 0.03 μM Compound 1
  CBG detected, Percent of control: 110% of control
  CBG glucuronide formed, Percent of control: 97.1% of control
  CBG detected: 1250 pmol
  CBG glucuronide formed: 360000 area ratio
rUGT1A9; 10 μM CBG + 0.1 μM Compound 1
  CBG detected, Percent of control: 112% of control
  CBG glucuronide formed, Percent of control: 92.0% of control
  CBG detected: 1280 pmol
  CBG glucuronide formed: 341000 area ratio
rUGT1A9; 10 μM CBG + 0.3 μM Compound 1
  CBG detected, Percent of control: 114% of control
  CBG glucuronide formed, Percent of control: 94.4% of control
  CBG detected: 1300 pmol
  CBG glucuronide formed: 350000 area ratio
rUGT1A9; 10 μM CBG + 1 μM Compound 1
  CBG detected, Percent of control: 106% of control
  CBG glucuronide formed, Percent of control: 92.6% of control
  CBG detected: 1210 pmol
  CBG glucuronide formed: 343000 area ratio
rUGT1A9; 10 μM CBG + 3 μM Compound 1
  CBG detected, Percent of control: 105% of control
  CBG glucuronide formed, Percent of control: 93.6% of control
  CBG detected: 1200 pmol
  CBG glucuronide formed: 347000 area ratio
rUGT1A9; 10 μM CBG + 10 μM Compound 1
  CBG detected, Percent of control: 99.8% of control
  CBG glucuronide formed, Percent of control: 92.8% of control
  CBG detected: 1140 pmol
  CBG glucuronide formed: 344000 area ratio
rUGT1A9; UGT1A9, 0.01-10 μM Compound 1
  inhibition of the conversion of CBG to a glucuronide (in words): not an effective inhibitor

## CCCCCc1cc(O)c(C/C=C(\C)CCC=C(C)C)c(O)c1 [CBG, cannabigerol]
[1]
  half-life: 49 min
  hepatocyte CLint: 28.3 µL/min/1e6 cells
[2]
  number of metabolites observed: eight
[3]
  half-life: 52.7 min
  hepatocyte CLint: 26.3 µL/min/1e6 cells
[4]
  number of metabolites observed: three
